In US20240092779A1, “USP1 INHIBITORS AND USES THEREOF” (Zentaur Therapeutics USA Inc., priority 2022, published 2024):

Test system: HCC1806 Ub-PCNA (USP1)
Experiment: USP1 Western Blot Protocol (HCC1806 Ub-PCNA)
Type: cell-based
Details: Homo sapiens, HCC1806 cells, 4 hours
In short: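 HCC1806 cells seeded overnight, then treated 4 h at 37 °C with a 5-point, 4-fold dilution series (0.1% DMSO). Lysates immunoblotted for Ub-PCNA with fluorescent detection; inhibition expressed as % vehicle from Ub-PCNA upregulation, IC50 by four-parameter logistic fit.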

Row | Compound | IC50
1 | COc1ncnc(C2CC2)c1-c1ncc2ccc(=O)n(Cc3ccc(-c4nc(C(F)(F)F)cn4C(C)C)cc3)c2c1F [Compound I-27, 7-(4-cyclopropyl-6-methoxypyrimidin-5-yl)-8-fluoro-1-({4-[1-isopropyl-4-(trifluoromethyl)imidazol-2-yl]phenyl}methyl)-1,6-naphthyridin-2-one] | 10 to 100 nM
2 | COc1ncnc(C2CC2)c1-c1ncc2cc(-c3c(C)noc3C)c(=O)n(Cc3ccc(-c4nc(C(F)(F)F)cn4C4CC4)cc3)c2n1 [Compound I-155] | < 10 nM
3 | COc1ncnc(C2CC2)c1-c1nc(C)c2cc(-c3cnn(C)c3)c(=O)n(Cc3ccc(-c4nc(C(F)(F)F)cn4C4CC4)cc3)c2n1 [Compound I-148, 8-({4-[1-Cyclopropyl-4-(Trifluoromethyl)Imidazol-2-Yl]Phenyl}Methyl)-2-(4-Cyclopropyl-6-Methoxypyrimidin-5-Yl)-4-Methyl-6-(1-Methylpyrazol-4-Yl)Pyrido[2,3-d]Pyrimidin-7-One] | < 10 nM
4 | COc1ncnc(C2CC2)c1-c1nc(C)c2cc(-c3ncnn3C)c(=O)n(Cc3ccc(-c4nc(C(F)(F)F)cn4C4CC4)cc3)c2n1 [Compound I-167, 8-({4-[1-Cyclopropyl-4-(Trifluoromethyl)Imidazol-2-Yl]Phenyl}Methyl)-2-(4-Cyclopropyl-6-Methoxypyrimidin-5-Yl)-4-Methyl-6-(2-Methyl-1,2,4-Triazol-3-Yl)Pyrido[2,3-d]Pyrimidin-7-One] | 10 to 100 nM
5 | COc1ncnc(C2CC2)c1-c1ncc2cc(-c3cn(C)nn3)c(=O)n(Cc3ccc(-c4nc(C(F)(F)F)cn4C4CC4)cc3)c2n1 [Compound I-150] | < 10 nM
6 | COc1cc(Cn2c(=O)ccc3c(C)nc(-c4c(OC)ncnc4C4CC4)nc32)ccc1-c1nc(C(F)(F)F)cn1C1CC1 [Compound I-152, 8-({4-[1-cyclopropyl-4-(trifluoromethyl)imidazo]-2-yl]-3-methoxyphenylmethyl)-2-(4-cyclopropyl-6-methoxypyrimidin-5-yl)-4-methylpyrido[2,3-d]pyrimidin-7-one] | < 10 nM
7 | COc1ncnc(C2CC2)c1-c1ncc2ccc(=O)n(Cc3ccc(-c4cccc(C(F)(F)F)n4)cc3)c2n1 [Compound I-36, 2-(4-cyclopropyl-6-methoxypyrimidin-5-yl)-8-({4-[6-(trifluoromethyl)pyridin-2-yl]phenyl}methyl)pyrido[2,3-d]pyrimidin-7-one] | 10 to 100 nM
8 | COc1ncnc(C2CC2)c1-c1ncc2cc(-c3ncn(C)n3)c(=O)n(Cc3ccc(-c4nc(C(F)(F)F)cn4C4CC4)cc3)c2n1 [Compound I-153, 8-({4-[1-cyclopropyl-4-(trifluoromethyl)imidazo]-2-yl]phenylmethyl)-2-(4-cyclopropyl-6-methoxypyrimidin-5-yl)-6-(1-methyl-1,2,4-triazol-3-yl)pyrido[2,3-d]pyrimidin-7-one] | < 10 nM
9 | COc1ncnc(C2CC2)c1-c1nc(C)c2cc(C3CCN(C)CC3)c(=O)n(Cc3ccc(-c4nc(C(F)(F)F)cn4C4CC4)cc3)c2n1 [Compound I-157, 8-({4-[1-Cyclopropyl-4-(Trifluoromethyl)Imidazol-2-Yl]Phenyl}Methyl)-2-(4-Cyclopropyl-6-Methoxypyrimidin-5-Yl)-4-Methyl-6-(1-Methylpiperidin-4-Yl)Pyrido[2,3-d]Pyrimidin-7-One] | < 10 nM
10 | COc1ncnc(C2CC2)c1-c1ncc2cc(-c3ncnn3C)c(=O)n(Cc3ccc(-c4nc(C(F)(F)F)cn4C4CC4)cc3)c2n1 [Compound I-156] | 10 to 100 nM
11 | COc1cc(Cn2c(=O)ccc3c(C)nc(-c4c(OC)ncnc4C4CC4)nc32)cc(F)c1-c1nc(C(F)(F)F)cn1C1CC1 [Compound I-163] | < 10 nM
12 | COc1ncnc(C2CC2)c1-c1ncc2cc(-c3ncnn3C)c(=O)n(Cc3ccc(-c4nc(C(F)(F)F)cn4C(C)C)cc3)c2n1 [Compound I-168, 2-(4-Cyclopropyl-6-Methoxypyrimidin-5-Yl)-8-({4-[1-Isopropyl-4-(Trifluoromethyl)Imidazol-2-Yl]Phenyl}Methyl)-6-(2-Methyl-1,2,4-Triazol-3-Yl)Pyrido[2,3-d]Pyrimidin-7-One] | < 10 nM
13 | COc1ncnc(C2CC2)c1-c1ncc2cc(-c3cnn(C)n3)c(=O)n(Cc3ccc(-c4nc(C(F)(F)F)cn4C4CC4)cc3)c2n1 [Compound I-151] | < 10 nM

Target: T1, recombinant USP1/UAF1 enzyme complex (Homo sapiens, UniProt O94782)
T1 construct: purchased Biortus
Experiment: Enzyme assay: deubiquitinase fluorometric assay with ubiquitin-Rhodamine substrate
Type: biochemical
Details: USP1/UAF1, Ub-Rho110 substrate, 2 hours preincubation, 1 hour reaction
Description: Enzymatic inhibitory potency of the compounds was assessed in a deubiquitinase fluorometric assay using ubiquitin-Rhodamine (Ub-Rho110, R&D Systems) as substrate and the recombinant USP1/UAF1 enzyme complex (Biortus). Assays were performed in a final volume of 12 μL using black 384-well plates (Corning #4514) containing 50 mM HEPES (pH 7.5, BioRoYee), 0.5 mM EDTA, 1 mM dithiothreitol, 0.1 mg/mL bovine serum albumin, 50 nM Ub-Rhol10, 0.004 nM USP1/UAF1, and series diluted compounds from 10 μM to 0.5 nM (10 dilution steps). Assay-ready plates containing 40 nL of Echo-dispensed compound in DMSO were reconstituted with 2 μL of ddH2O, then 5 μL of USP1/UAF1 enzyme mixture was added and preincubated at room temperature for 2 hours. Enzymatic reaction was initiated by the addition of […] substrate mixture and assay allowed to proceed for 1 hour at room temperature before quenching with 3 μL of 150 mM citric acid. Fluorescence signal was detected via TECAN SPARK with excitation at 485 nm and emission at 535 nm. Data analysis was done using GraphPad Prism8 and IC50 values were obtained by 4-parameter logistic curve fitting.
Certain compounds were tested in the assays.

T1 sequence (O94782 whole entry): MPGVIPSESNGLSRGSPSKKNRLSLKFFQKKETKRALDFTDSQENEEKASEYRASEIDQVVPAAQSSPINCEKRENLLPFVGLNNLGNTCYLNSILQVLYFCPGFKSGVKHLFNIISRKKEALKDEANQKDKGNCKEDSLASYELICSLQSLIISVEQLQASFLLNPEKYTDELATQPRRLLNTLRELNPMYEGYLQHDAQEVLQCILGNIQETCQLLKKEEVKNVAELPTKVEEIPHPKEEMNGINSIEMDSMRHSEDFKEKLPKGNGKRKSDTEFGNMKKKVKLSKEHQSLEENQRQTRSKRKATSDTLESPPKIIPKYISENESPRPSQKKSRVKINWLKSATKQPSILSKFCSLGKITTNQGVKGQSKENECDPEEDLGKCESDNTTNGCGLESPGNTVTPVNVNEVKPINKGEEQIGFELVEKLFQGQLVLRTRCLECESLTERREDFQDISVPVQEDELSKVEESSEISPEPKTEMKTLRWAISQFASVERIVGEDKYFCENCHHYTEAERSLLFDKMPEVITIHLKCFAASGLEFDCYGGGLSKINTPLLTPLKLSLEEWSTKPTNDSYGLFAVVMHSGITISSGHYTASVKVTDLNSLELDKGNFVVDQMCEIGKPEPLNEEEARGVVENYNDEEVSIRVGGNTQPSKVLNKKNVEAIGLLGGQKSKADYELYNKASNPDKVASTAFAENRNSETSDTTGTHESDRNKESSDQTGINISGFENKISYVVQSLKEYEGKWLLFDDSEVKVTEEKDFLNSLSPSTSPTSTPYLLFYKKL
T1 sequence (Q8TAF3 whole entry partner): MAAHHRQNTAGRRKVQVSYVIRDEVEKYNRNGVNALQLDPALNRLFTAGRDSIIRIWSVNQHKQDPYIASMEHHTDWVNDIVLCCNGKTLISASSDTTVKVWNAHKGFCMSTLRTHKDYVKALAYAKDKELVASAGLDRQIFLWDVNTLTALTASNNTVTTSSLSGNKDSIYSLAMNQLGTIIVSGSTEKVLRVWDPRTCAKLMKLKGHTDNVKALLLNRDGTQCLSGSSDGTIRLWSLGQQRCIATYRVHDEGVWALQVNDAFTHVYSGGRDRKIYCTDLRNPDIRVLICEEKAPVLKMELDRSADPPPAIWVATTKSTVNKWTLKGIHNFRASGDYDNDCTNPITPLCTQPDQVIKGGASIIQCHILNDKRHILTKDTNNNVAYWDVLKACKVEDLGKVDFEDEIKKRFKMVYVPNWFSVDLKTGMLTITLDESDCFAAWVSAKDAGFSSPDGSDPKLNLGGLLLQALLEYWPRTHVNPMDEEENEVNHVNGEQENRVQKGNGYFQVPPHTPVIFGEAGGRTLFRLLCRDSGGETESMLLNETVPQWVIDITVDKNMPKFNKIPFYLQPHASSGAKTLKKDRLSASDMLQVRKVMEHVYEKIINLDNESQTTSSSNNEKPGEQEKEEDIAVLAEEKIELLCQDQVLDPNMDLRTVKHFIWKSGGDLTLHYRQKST

Row | Compound | IC50
14 | COc1ncnc(C2CC2)c1-c1ncc2ccc(=O)n(Cc3ccc(-c4nc(C(F)(F)F)cn4C(C)C)cc3)c2c1F [Compound I-27, 7-(4-cyclopropyl-6-methoxypyrimidin-5-yl)-8-fluoro-1-({4-[1-isopropyl-4-(trifluoromethyl)imidazol-2-yl]phenyl}methyl)-1,6-naphthyridin-2-one] | 10 to 100 nM
15 | COc1ncnc(C2CC2)c1-c1ncc2ccc(=O)n(Cc3ccc(-c4cccc(C(F)(F)F)n4)cc3)c2n1 [Compound I-36, 2-(4-cyclopropyl-6-methoxypyrimidin-5-yl)-8-({4-[6-(trifluoromethyl)pyridin-2-yl]phenyl}methyl)pyrido[2,3-d]pyrimidin-7-one] | 10 to 100 nM
